According to patent publication US11505553B2, “2-(Het)aryl-substituted fused heterocycle derivatives as pesticides” (Bayer Aktiengesellschaft, priority 2017, dated 2022):
Read-outs that look alike come from different tables or passages of the source.

Key:
Format in all cases: in vivo
Myzus persicae [1] = experiment: Myzus persicae oral test; details: 120 h, after 5 days, read-out: efficacy; for pest or weed control at 4 ppm: application rate 4 ppm; for pest or weed control at 0.8 ppm: application rate 0.8 ppm
Protocol: Solvent: 100 parts by weight of acetone To produce a suitable active ingredient formulation, 1 part by weight of active ingredient is dissolved with the stated parts by weight of solvent and made up to the desired concentration with water. 50 μl of the active ingredient preparation are transferred into microtitre plates and made up to a final volume of 200 μl with 150 μl of IPL41 insect medium (33%+15% sugar). Subsequently, the plates are sealed with parafilm, which a mixed population of green peach aphids (Myzus persicae) within a second microtitre plate is able to puncture and imbibe the solution. After 5 days, the efficacy in % is determined. 100% means that all the aphids have been killed; 0% means that no aphids have been killed.

Myzus persicae [2] = experiment: Myzus persicae drench test (MYZUPE D); details: soil, 240 h, 10 dat, read-out: % efficacy
Protocol: Solvent: 7 parts by weight of dimethylformamide Emulsifier: 2 parts by weight of alkylaryl polyglycol ether To produce an appropriate active ingredient formulation, 1 part by weight of active ingredient is mixed with the stated amounts of solvent and emulsifier, and the concentrate is diluted with water to the desired concentration, it being necessary to take into account soil volume into which drenching is effected. It should be ensured that a concentration of 40 ppm of emulsifier in the soil is not exceeded. For production of further test concentrations, the mixture is diluted with water. Savoy cabbage plants (Brassica oleracea) in earth pots, infested by all stages of the green peach aphid (Myzus persicae), are drenched with an active ingredient formulation of the desired concentration. After the desired time, the efficacy in % is determined. 100% means that all aphids have been killed; 0% means that no aphids have been killed.

Myzus persicae [3] = experiment: Myzus persicae spray test (MYZUPE), contrastive examples; details: 120 h, 5 dat, read-out: % efficacy
Protocol: (§1) Solvent: 78.0 parts by weight of acetone • • 1.5 parts by weight of dimethylformamide Emulsifier: alkylaryl polyglycol ether To produce a suitable active ingredient formulation, 1 part by weight of active ingredient is dissolved with the specified parts by weight of solvent and made up to the desired concentration with water containing an emulsifier concentration of 1000 ppm. To produce further test concentrations, the formulation is diluted with emulsifier-containing water. Discs of chinese cabbage leaves (Brassica pekinensis) infested by all stages of the green peach aphid (Myzus persicae) are sprayed with an active ingredient formulation of the desired concentration. After the desired time, the efficacy in % is determined. 100% means that all aphids have been killed; 0% means that no aphids have been killed.

Ctenocephalides felis [4] = experiment: Ctenocephalides felis in vitro contact test with adult cat fleas; details: application rate 5 μg/cm^2 (=500 g/ha), after 48 h, adult cat fleas dead or moribund, read-out: efficacy
Protocol: For the coating of the test tubes, 9 mg of active ingredient are first dissolved in 1 ml of acetone p.a. and then diluted to the desired concentration with acetone p.a. 250 μl of the solution are distributed homogeneously on the inner walls and the base of a 25 ml glass tube by turning and rocking on an orbital shaker (rocking rotation at 30 rpm for 2 h). With 900 ppm of active ingredient solution and internal surface area 44.7 cm^2, given homogeneous distribution, an area-based dose of 5 μg/cm^2 is achieved. After the solvent has evaporated off, the tubes are populated with 5-10 adult cat fleas (Ctenocephalides felis), sealed with a perforated plastic lid and incubated in a horizontal position at room temperature and ambient humidity. After 48 h, efficacy is determined. To this end, the tubes are stood upright and the fleas are knocked to the base of the tube. Fleas which remain motionless at the base or move in an uncoordinated manner are considered to be dead or moribund. […] 100% efficacy means that all the fleas were dead or moribund. 0% efficacy means that no fleas were harmed.

Ctenocephalides felis [5] = experiment: Ctenocephalides felis oral test; details: 48 h, application rate 100 ppm in citrated cattle blood, after 2 days, read-out: efficacy (kill)
Protocol: Solvent: dimethyl sulfoxide To produce a suitable active ingredient formulation, 10 mg of active ingredient are mixed with 0.5 ml of dimethyl sulfoxide. Dilution with citrated cattle blood gives the desired concentration. About 20 unfed adult cat fleas (Ctenocephalides felis) are placed into a chamber which is closed at the top and bottom with gauze. A metal cylinder whose bottom end is closed with parafilm is placed onto the chamber. The cylinder contains the blood/active ingredient formulation, which can be imbibed by the fleas through the parafilm membrane. After 2 days, the kill in % is determined. 100% means that all of the fleas have been killed; 0% means that none of the fleas have been killed.

Myzus persicae [6] = experiment: Myzus persicae spray test; details: foliar, 120 h, Chinese cabbage leaf discs, after 5 days, read-out: efficacy; for pest or weed control at 100 g/ha: application rate 100 g/ha
Protocol: as §1, with “Solvent: 78 parts by” for “Solvent: 78.0 parts by”, “Discs of Chinese cabbage leaves” for “Discs of chinese cabbage leaves”, “concentration. After 5 days, the efficacy” for “concentration. After the desired time, the efficacy”, “that all the aphids have” for “that all aphids have”

Nilaparvata lugens [7] = experiment: Nilaparvata lugens test (NILALU S); details: read-out: % efficacy
Protocol: Solvent: 14 parts by weight of dimethylformamide Emulsifier: 2 parts by weight of alkylaryl polyglycol ether To produce an appropriate active ingredient formulation, 1 part by weight of active ingredient is dissolved with the stated parts by weight of solvent and emulsifier and made up with water until the desired concentration is attained. For production of further test concentrations, the mixture is diluted with water. If addition of ammonium salts or/and penetrants (rapeseed oil methyl ester) is required, these are each pipetted into the finished preparation solution in a concentration of 1000 ppm after the dilution. Rice plants (Oryza sativa, var. Balilla) are treated by spraying with the active ingredient formulation in the desired concentration and then populated with L3 larvae of the brown planthopper (Nilaparvata lugens). After the desired time, the kill in % is determined. 100% means that all planthoppers have been killed and 0%, means that no planthoppers have been killed.

Myzus persicae [8] = experiment: Myzus persicae spray test (MYZUPE S), bell pepper plants; details: 144 h, 6 dat, read-out: % efficacy
Protocol: Solvent: 14 parts by weight of dimethylformamide Emulsifier: alkylaryl polyglycol ether To produce an appropriate active ingredient formulation, 1 part by weight of active ingredient is dissolved with the stated parts by weight of solvent and made up with water containing an emulsifier concentration of 1000 ppm until the desired concentration is attained. For production of further test concentrations, the mixture is diluted with emulsifier-containing water. If addition of ammonium salts or/and penetrants is required, these are each added to the preparation solution in a concentration of 1000 ppm. Bell pepper plants (Capsicum annuum) severely infested by the green peach aphid (Myzus persicae) are treated by spraying with the active ingredient formulation in the desired concentration. After the desired time, the kill in % is determined. 100% means that all animals have been killed; 0% means that no animals have been killed.

Phaedon cochleariae = Phaedon cochleariae spray test (PHAECO), contrastive examples; details: 168 h, 100 g/ha, 7 dat, read-out: % efficacy
Protocol: Solvent: 78.0 parts by weight of acetone • • 1.5 parts by weight of dimethylformamide Emulsifier: alkylaryl polyglycol ether To produce an appropriate active ingredient formulation, 1 part by weight of active ingredient is dissolved with the stated parts by weight of solvent and made up with water containing an emulsifier concentration of 1000 ppm until the desired concentration is attained. For production of further test concentrations, the mixture is diluted with emulsifier-containing water. Discs of chinese cabbage leaves (Brassica pekinensis) are sprayed with an active ingredient formulation of the desired concentration and, after drying, populated with larvae of the mustard beetle (Phaedon cochleariae). After the desired time, the efficacy in % is determined. 100% means that all beetle larvae have been killed; 0% means that no beetle larvae have been killed.

Nilaparvata lugens [9] = experiment: Nilaparvata lugens spray test (NILALU); details: 96 h, 4 dat, read-out: % efficacy
Protocol: Solvent: 52.5 parts by weight of acetone • 7 parts by weight of dimethylformamide
Emulsifier: alkylaryl polyglycol ether
To produce an appropriate active ingredient formulation, 1 part by weight of active ingredient is dissolved with the stated parts by weight of solvent and made up with water containing an emulsifier concentration of 1000 ppm until the desired concentration is attained. For production of further test concentrations, the mixture is diluted with emulsifier-containing water. If addition of ammonium salts or/and penetrants is required, these are each added to the preparation solution in a concentration of 1000 ppm.
Rice plants (Oryza sativa) are sprayed with an active ingredient formulation of the desired concentration and then populated with larvae of the rice cicada (Nilaparvata lugens).
After the desired time, the efficacy in % is determined. 100% means that all rice cicadas have been killed; 0% means that no rice cicadas have been killed.

| SMILES | pest or weed control at 4 ppm (Myzus persicae [1]) | Emax at 0.8 ppm (Myzus persicae [2]) | Emax at 4 g/ha (Myzus persicae [3]) | other results |
| --- | --- | --- | --- | --- |
| CCS(=O)(=O)c1ccc(N(C)C(=O)N(C)C)nc1-c1nc2cc(C(F)(F)C(F)(F)F)nnc2n1C [Example I-13] | 100% | 95% | 90% |  |
| CNC(=O)Nc1ccc(S(C)(=O)=O)c(-c2nc3cc(C(F)(F)F)nnc3n2C)n1 [Example I-5] | 100% |  |  | pest or weed control at 0.8 ppm (Myzus persicae [1]): 100%; pest or weed control at 5 µg/cm2, 500 g/ha (Ctenocephalides felis [4]): 100%; pest or weed control at 100 ppm (Ctenocephalides felis [5]): 100%; pest or weed control at 100 g/ha (Myzus persicae [6]): 90% |
| CN(C)C(=O)Nc1ccc(S(C)(=O)=O)c(-c2nc3cc(C(F)(F)C(F)(F)F)nnc3n2C)n1 [Example I-11] | 100% | 95% |  | Emax at 0.8 ppm (Nilaparvata lugens [7]; 336 h, 14 dat): 85% |
| CCS(=O)(=O)c1ccc(N(C)C(=O)N(C)C)nc1-c1nc2cc(C(F)(F)F)nnc2n1C [Example I-12] | 100% |  | 90% | pest or weed control at 0.8 ppm (Myzus persicae [1]): 100%; Emax at 0.8 ppm (Myzus persicae [8]): 90%; pest or weed control at 20 g/ha (Myzus persicae [6]; application rate 20 g/ha): 90%; pest or weed control at 100 g/ha (Myzus persicae [6]): 100% |
| CN(C)C(=O)Nc1ccc(S(C)(=O)=O)c(-c2nc3cc(C(F)(F)F)nnc3n2C)n1 [Example I-4] | 100% |  |  | pest or weed control at 100 ppm (Ctenocephalides felis [5]): 100% |
| CCS(=O)(=O)c1ccc(NC(=O)NC)nc1-c1nc2cc(C(F)(F)C(F)(F)F)nnc2n1C [Example I-7] |  |  | 100% |  |
| CNC(=O)Nc1ccc(S(C)(=O)=O)c(-c2nc3cc(C(F)(F)C(F)(F)F)nnc3n2C)n1 [Example I-10] | 100% |  |  | Emax at 0.8 ppm (Nilaparvata lugens [7]; 168 h, 7 dat): 95%; Emax at 0.8 ppm (Nilaparvata lugens [7]; 336 h, 14 dat): 80% |
| CCNC(=O)Nc1ccc(S(=O)(=O)CC)c(-c2nc3cc(C(F)(F)F)nnc3n2C)n1 [Prior art according to WO2017/025419, reference compound] |  |  | 0% | Emax at 0.8 ppm (Myzus persicae [8]): 0%; Emax at 100 g/ha (Phaedon cochleariae): 50%; Emax at 4 g/ha (Nilaparvata lugens [9]): 0% |
| CCS(=O)(=O)c1ccc(NC(=O)N(C)C)nc1-c1nc2cc(C(F)(F)C(F)(F)F)nnc2n1C [Example I-9] | 100% | 98% |  |  |
| CCS(=O)(=O)c1ccc(N(C)C(=O)NC)nc1-c1nc2cc(C(F)(F)C(F)(F)F)nnc2n1C [Example I-8] | 100% | 99% |  | Emax at 4 g/ha (Nilaparvata lugens [9]): 50% |
